Measured values taken from US10562947B2, “Compositions and methods for preventing or treating diseases, conditions or processes characterized by aberrant fibroblast proliferation and extracellular matrix deposition” (MOERAE MATRIX, INC., priority 2011, dated 2020).
Where a SMILES comes first, the peptide text is derived from it.

Experiments:
[1] = tested on: human airway smooth muscle (HASM); test: ISO-induced relaxation of intact airway tissues in muscle bath; details: 200 μM pre-treatment for 30 min; n=4
Procedure: (§1) (A) Representative tracings of force generation. Cumulative contractile responses to CCH (B) and % relaxation to ISO doses (C). n=4; p<0.05. Inset is an immunoblot showing MK2 phosphorylation level. HASM was hung in the muscle bath and frozen. MK2 phosphorylation was determined by SDS PAGE and immunoblotting.

[2] = tested on: phospho-Thr^334-MAPKAPK2; test: Activated MK2 immunostaining of lung sections, bleomycin treatment model; assay type: in vivo, mouse; details: 50 μg/kg daily IP or NEB, day 14 to 28
Description: Briefly, C57-BL/6 mice were subjected to bleomycin injury at day 0. […] Formalin-fixed lung tissue sections were immunostained against phospho-Thr^334 MK2. Control staining was with biotinylated secondary IgG antibody. Streptavidin-conjugated horseradish peroxidase was used with 3,3′-diaminobenzidene as substrate and nuclei was counterstained with hematoxylin.

[3] = tested on: splenic T cells; test: Autologous mixed lymphocyte reaction of splenic T cells from treated bleomycin mice; assay type: in vivo, mouse; details: day 7 to 21
Description: Recent studies highlighted a key role for T lymphocytes in bleomycin-induced fibrosis (Wilson, M. et al., The Journal of Experimental Medicine, 207(3): 535-552, 2010). […] Specifically, the ability of C57BL/6 purified antigen-presenting cells to induce proliferation in C57BL/6 T lymphocytes was examined in the assay.
C57-BL/6 mice were subjected to bleomycin injury at day 0. […] Splenic T cells were isolated and cultured alone or in the presence of autologous antigen presenting cells (APCs from C57-BL/6 mice) or stimulated with antibodies against CD3 (α-CD3) for 48 h. The cells then were radiolabeled with […] thymidine for 16 h and assessed for proliferation rates.

[4] = tested on: MK2 phosphorylation; test: MK2 phosphorylation in intact airway smooth muscle, immunoblot; set-up: species or system human; details: 200 μM pre-treatment for 30 min
Procedure: as §1

[5] = tested on: IL-6; test: Circulating inflammatory cytokines, bleomycin treatment model; assay type: in vivo, mouse; details: intraperitoneal or nebulized; 24 hours after final administration
[6] = tested on: Porcine airway smooth muscle (PASM); test: ISO-induced relaxation of airway smooth muscle rings in muscle bath; details: 100 μM for 1 hr; CCh-contracted rings; n=3
Description: Porcine airway smooth muscle (PASM) rings were isolated from second generation bronchi, cartilage was peeled off and then hung in a muscle bath and equilibrated in Kreb's buffer for 3 hrs. […] ISO is a β-adrenergic agonist that relaxes almost all varieties of […] when the tone is high, but its action is most pronounced on bronchial and gastrointestinal smooth muscle. It prevents or relieves bronchoconstrution. Its effect in asthma maybe due in part to an additional action to inhibit antigen-induced release of histamine and other mediators of inflammation; this action is shared by β2-receptor-selective stimulants. Goodman & Gilman's The Pharmacological Basis of Therapeutics, Joel G. Hardman and Lee E. Limberd, Eds., 10th Ed. […] Force was normalized to the weight and length of the tissue and converted to stress and relaxation induced was calculated.

[7] = tested on: bleomycin-induced lung fibrosis in C57BL/6 mice; test: Bleomycin mouse model of pulmonary fibrosis, treatment model (dosing day 14 to 28); assay type: in vivo; set-up: collagen deposition (hydroxyproline assay, whole left lung): dose or concentration left out as unconfirmed
Procedure: A mouse model of pulmonary fibrosis was generated by administering 0.025 U of bleomycin/PBS intratracheally to C57BL/6 mice. […] At 21 day post bleomycin delivery (for prevention model) or 28 post bleomycin delivery (for treatment model), groups of mice were sacrificed with a sodium pentobarbital injection (120 mg/kg) and the chest cavity was opened. The right mainstem bronchus was ligated and the right lung was removed. The trachea was cannulated and the left lung was perfused with 4% formaldehyde at 21 cm H2O pressure. The tissue blocks then were embedded in paraffin, and […] sections were prepared for staining. Sections from each animal were stained with hematoxylin and eosin (H&E) to visualize cells or with Masson's Trichrome staining to highlight collagen deposition. […] Stained sections were mounted onto a labeled glass slide with organic mounting medium.
The classic bleomycin model, as depicted in FIG. 10, has been used widely in the literature in the pre-fibrotic stage to test efficacy of any intervention. […]
Next, collagen deposition was determined quantitatively by using the standard hydroxyproline assay with whole left lung. Total collagen (soluble and insoluble) deposition was assessed by analyzing hydroxyproline concentrations in murine lungs day 28 post bleomycin injury.

CC(C)C[C@H](NC(=O)[C@H](C)NC(=O)[C@H](CCCCN)NC(=O)[C@H](C)NC(=O)[C@H](CCCNC(=N)N)NC(=O)[C@H](C)NC(=O)[C@H](CCC(N)=O)NC(=O)[C@H](CCCNC(=N)N)NC(=O)[C@H](C)NC(=O)[C@H](C)NC(=O)[C@H](C)NC(=O)[C@H](CCCNC(=N)N)NC(=O)[C@H](C)NC(=O)[C@@H](N)Cc1ccc(O)cc1)C(=O)N[C@@H](C)C(=O)N[C@@H](CCCNC(=N)N)C(=O)N[C@@H](CCC(N)=O)C(=O)N[C@@H](CC(C)C)C(=O)NCC(=O)N[C@H](C(=O)N[C@@H](C)C(=O)N[C@@H](C)C(=O)O)C(C)C [MMI-0100] (H-YARAAARQARAKALARQLGVAA-OH; N-terminus and C-terminus assumed)
ISO-induced relaxation [1]: enhances ISO-induced relaxation
activated MK2 (phospho-Thr^334-MAPKAPK2) staining [2]: decreased phospho-Thr^334-MAPKAPK2 staining
proliferation of T cells in the presence of antigen presenting cells ([3]; 50 μg/kg/day intraperitoneal (systemic)): significantly reduced
proliferation of T cells in the presence of antigen presenting cells ([3]; 50 μg/kg/day nebulizer (inhaled)): not by the inhaled mode
toxicity (proliferative response of splenic T cells to α-CD3) ([3]; 50 μg/kg/day): no toxicity
MK2 phosphorylation level [4]: reduced MK2 phosphorylation
plasma level of IL-6 [5]: significantly reduced
enhancement of ISO induced relaxation [6]: 13%
collagen deposition (hydroxyproline assay, whole left lung) ([7]; IP or NEB from day 14, day 28 post bleomycin): significantly arrested further progression of collagen deposition
lung architecture and collagen distribution (H&E, Masson's blue trichrome) ([7]; intraperitoneal or nebulized, daily day 14 to 28): clearer lung parenchyma
